According to PubChem BioAssay AID330 (DTP/NCI, 2004):
Toxic doses and inconclusive results are not listed.

System: P388 leukemia ip, CD2F1 mice, survival T/C
Assay: NCI In Vivo Anticancer Drug Screen. Data for tumor model P388 Leukemia (intraperitoneal) in CD2F1 (CDF1) mice
Details: endpoint: median survival time, higher = longer survival
Method in brief: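 Mice carrying the transplanted tumor received test compound or vehicle. Survival was recorded in each group, and the value is the treated-group measurement divided by that of the vehicle-treated control group.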

CC(=O)OC(C(=O)CCl)C(OC(C)=O)C(OC(C)=O)C(=O)CCl (stereo not drawn)
T/C (dose: 12.5 mg/kg/injection, schedule: Q01DX009 (ip), vehicle: distilled water + Tween-80 + alcohol): 93 % of control | T/C (dose: 25.0 mg/kg/injection, schedule: Q01DX009 (ip), vehicle: distilled water + Tween-80 + alcohol): 101 % of control | T/C (dose: 50.0 mg/kg/injection, schedule: Q01DX009 (ip), vehicle: distilled water + Tween-80 + alcohol): 100 % of control

CC(C)(C)N=C(CCN1CCN(CCC(=NC(C)(C)C)Nc2ccc(Cl)cc2)CC1)Nc1ccc(Cl)cc1
T/C (dose: 50.0 mg/kg/injection, schedule: Q01DX009 (ip), vehicle: Klucel (hydroxypropylcellulose) (HPC)): 87 % of control | T/C (dose: 100.0 mg/kg/injection, schedule: Q01DX009 (ip), vehicle: Klucel (hydroxypropylcellulose) (HPC)): 93 % of control | T/C (dose: 200.0 mg/kg/injection, schedule: Q01DX009 (ip), vehicle: Klucel (hydroxypropylcellulose) (HPC)): 96 % of control

CC(=O)Nc1ccc(S(=O)(=O)n2c(=O)oc3ccc(Cl)cc32)cc1
T/C (dose: 50.0 mg/kg/injection, schedule: Q01DX005 (ip), vehicle: Klucel (hydroxypropylcellulose) (HPC)): 99 % of control | T/C (dose: 100.0 mg/kg/injection, schedule: Q01DX005 (ip), vehicle: Klucel (hydroxypropylcellulose) (HPC)): 94 % of control | T/C (dose: 200.0 mg/kg/injection, schedule: Q01DX005 (ip), vehicle: Klucel (hydroxypropylcellulose) (HPC)): 94 % of control

CCn1c(N)c(C(=S)NC)c(=O)n(CC)c1=O
T/C (dose: 50.0 mg/kg/injection, schedule: Q01DX009 (ip), vehicle: saline): 100 % of control | T/C (dose: 100.0 mg/kg/injection, schedule: Q01DX009 (ip), vehicle: saline): 96 % of control

C/C(C#N)=C/c1ccccc1
T/C (dose: 50.0 mg/kg/injection, schedule: Q01DX009 (ip), vehicle: saline with Tween-80): 104 % of control | T/C (dose: 100.0 mg/kg/injection, schedule: Q01DX009 (ip), vehicle: saline with Tween-80): 118 % of control

COc1ccc(OC)c(NC(=O)Oc2ccc(C#N)cc2)c1
T/C (dose: 60.0 mg/kg/injection, schedule: Q01DX005 (ip), vehicle: saline with Tween-80): 119 % of control | T/C (dose: 120.0 mg/kg/injection, schedule: Q01DX005 (ip), vehicle: saline with Tween-80): 107 % of control | T/C (dose: 240.0 mg/kg/injection, schedule: Q01DX005 (ip), vehicle: saline with Tween-80): 111 % of control

COc1cc(Br)c(CC(=O)c2ccc3c(c2)OCO3)cc1OC
T/C (dose: 50.0 mg/kg/injection, schedule: Q01DX005 (ip), vehicle: saline with Tween-80): 86 % of control | T/C (dose: 200.0 mg/kg/injection, schedule: Q01DX005 (ip), vehicle: saline with Tween-80): 87 % of control
